Data on four molecules can be found in US7592503B2, “Mammalian telophase oocyte enucleation” (Trustees of Tufts College, priority 1998, dated 2009).

Experiment [1] deals with mouse metaphase II oocytes. As to the kind of experiment: Treatment-induced nuclear chromatin enucleation of activated oocytes (H33342 staining, fluorescence microscopy). In kind it is cell-based. As to conditions: for rate of treatment-induced chromatin enucleation: ethanol- or ionomycin-activated B6D2 oocytes, Taxol 5 μg/ml, Cycloheximide 10 μg/ml, Demecolcine 0.4 μg/ml in PBS+10% FBS, 0.5-1.5 h post activation; for rate of treatment-induced chromatin enucleation (range in parentheses): same treatments, range printed in parentheses. An excerpt:
Advances in somatic cell nuclear transfer (NT) methodology have seen the procession of cloned sheep, cows, mice and goats. Despite the clear potential use of this technology for genetic manipulations, the success rates remain woefully low. The limitations associated with nuclear transfer include the selection and preparation of competent donor cytoplasts. The cytoplasm plays a vital role in genome reprogramming and reactivation and therefore manipulations that compromise oocyte developmental competence are detrimental to the success of nuclear transfer. The present study was directed towards determining alternative methods to more efficiently prepare competent cytoplasts for nuclear transfer procedures. In experiment 1, in vivo-produced mouse metaphase II oocytes (B6D2, aguti, recovered at 16-20 h post hCG) were activated by exposure to either 7% ethanol or 2 μm ionomycin in PBS+10% FBS (5 min.). At the onset of initial second polar body formation (10-15 min. post activation) and extrusion (anaphase/telophase stage), oocytes were randomly allocated to control (cultured 0.5-1.5 h) or incubated with Taxol® (5 μg/ml), Cycloheximide (10 μg/ml) or in Demecolcine (0.4 μg/ml) in PBS+10% FBS until the second polar body was extruded (0.5-1.5 h post activation) to induce nuclear chromatin enucleation. Oocytes were stained (H33342, 5 μg/ml) to confirm the extent of nuclear chromatin enucleation using fluorescence microscopy. […] In experiment 2, Demecolcine-induced enucleated cytoplasts were used for nuclear transfer recipients. Donor nuclei were prepared from cumulus cells (Black Swiss) by partial lysis (1% sodium citrate) followed by aspiration using the injection pipette (7 um). Donor nuclei were injected into cytoplasts pretreated with Cytochalasin-B (5 μg/ml, 15 min.). Reconstructed NT embryos were subsequently co-cultured (72-96 h) with oviductal cells in drops of M-199+10% FBS. The cleavage rate was 70% (85/121) and the rate of blastocyst formation was 42% (51/121). Pregnancies were established in 2/3 recipients (CD1, white) following uterine embryo transfer (10 embryos/recipient). A total of 14 black female pups were born (47%, 14/30), seven of which were stillborn from 1 recipient and the other seven were born live (23%, 7/30) but 3 were cannibalized within 24 h. The 4 cloned pups were normal and healthy, and their fertility is being assessed. […] Moreover, cytoplasts derived from this enucleation procedure are competent to support genome reactivation and fetal development to term. This technically simple approach may provide a more efficient method to produce large numbers of cytoplasts for cloning procedures.

Experiment [2] has as its system mouse oocytes. As to the kind of experiment: Activation of metaphase II oocytes to Telophase II stage in vitro. In kind it is cell-based. Particulars: ionomycin 4 μM, 5 min; 3 replicate experiments. The method, then: Oocytes were collected from superovulated mice by flushing oviducts to collect metaphase II stage oocytes. Oocytes were then activated by one of two methods to reach the Telophase II state in vitro: culture-induced Ca^2+ activation or ionomycin activation (4 μM, 5 min), and enucleated. Karyoplasts were prepared from cumulus cells (natural G0 stage) and nuclear transfer was conducted followed by electrical fusion with Telophase II cytoplasts.

As to `C[C@@H]1C[C@@H]([C@H](O)CC2CC(=O)NC(=O)C2)C(=O)[C@@H](C)C1` [Cycloheximide], in experiment [1], the “rate of treatment-induced chromatin enucleation” value amounted to 16.3% and the “rate of treatment-induced chromatin enucleation (range in parentheses)” value (shortened to “rate … (range in parentheses)”) is listed as 0-24%.

On to `CN[C@H]1CCc2cc(OC)c(OC)c(OC)c2-c2ccc(OC)c(=O)cc21` [Demecolcine], for which, in experiment [1], the “rate of treatment-induced chromatin enucleation” value came to 54% and the “rate … (range in parentheses)” value is reported as 27-70%.

For `C[C@H](CCC(=O)O)C[C@H](C)C[C@H](C)C(=O)/C=C(\O)[C@H](C)C[C@H](C)C/C=C/[C@@H](C)[C@@H](O)[C@@H](C)[C@@H](O)C[C@@H]1CC[C@@](C)([C@H]2CC[C@@](C)([C@@H](C)O)O2)O1` [Ionomycin, ionomycin], in experiment [2], the “Activation, Number (activated/treated oocytes)” value is listed as 46/50 and the “Activation, Percent” value was 92%.

`CC(=O)O[C@H]1C(=O)[C@@]2(C)[C@H]([C@H](OC(=O)c3ccccc3)[C@]3(O)C[C@H](OC(=O)[C@H](O)[C@@H](NC(=O)c4ccccc4)c4ccccc4)C(C)=C1C3(C)C)[C@]1(OC(C)=O)CO[C@@H]1C[C@@H]2O` [Taxol®, paclitaxel]: in experiment [1], the “rate of treatment-induced chromatin enucleation” value is given as 3.6% and the “rate … (range in parentheses)” value is on record as 0-10%.
